Patent US11969423B2, “Compounds” (GLAXOSMITHKLINE INTELLECTUAL PROPERTY DEVELOPMENT LIMITED, priority 2017, dated 2024)

System: M. tuberculosis W4-E1-GFP (Mutant)
Format: cell-based, Mycobacterium tuberculosis
Settings: read-out: EC50_Mutant

First: O=C(CCC(F)(F)F)N1CCC(c2cnccn2)CC1 [Example 1, 4,4,4-trifluoro-1-(4-pyrazin-2-yl-1-piperidyl)butan-1-one]
Second: O=C(CCC(F)(F)F)N1CCC(c2cncc(Cl)n2)CC1 [Example 32, 1-(4-(6-chloropyrazin-2-yl)piperidin-1-yl)-4,4,4-trifluorobutan-1-one]
The EC50 of the first is higher: 1000 to 10000 nM for the first, 50 to 250 nM for the second.

First: O=C(CCC(F)(F)F)N1CCC(F)(c2cccnc2)CC1 [Example 2, 4,4,4-trifluoro-1-[4-fluoro-4-(3-pyridyl)-1-piperidyl]butan-1-one]
Second: O=C(CCC(F)(F)F)N1CCC(F)(c2cncc(Cl)c2)CC1 [Example 29, 1-(4-(5-chloropyridin-3-yl)-4-fluoropiperidin-1-yl)-4,4,4-trifluorobutan-1-one]
The EC50 of the first is higher: 500 to 1000 nM for the first, less than 50 nM for the second. The second is the more potent here.

Compared with O=C(CCC(F)(F)F)N1CCC(c2cncc(F)c2)CC1 [Example 3, 4,4,4-trifluoro-1-[4-(5-fluoro-3-pyridyl)-1-piperidyl]butan-1-one], O=C(CCC(F)(F)F)N1CCC(c2cncc(Cl)c2)CC1 [Example 30, 1-(4-(5-chloropyridin-3-yl)piperidin-1-yl)-4,4,4-trifluorobutan-1-one] is lower in EC50: 1000 to 10000 nM for the first, 50 to 250 nM for the second.

First: O=C(CCC(F)(F)F)N1CCC(c2ccc(F)nc2)CC1 [Example 4, 4,4,4-trifluoro-1-[4-(6-fluoro-3-pyridyl)-1-piperidyl]butan-1-one]
Second: COc1ccc(C2CCN(C(=O)CCC(F)(F)F)CC2)cn1 [Example 10, 4,4,4-trifluoro-1-[4-(6-methoxy-3-pyridyl)-1-piperidyl]butan-1-one]
The EC50 of the first is higher: 1000 to 10000 nM for the first, 50 to 250 nM for the second. The second is the more potent here.

First: O=C(CCC(F)(F)F)N1CCC(c2ccc(C(F)(F)F)nc2)CC1 [Example 5, 4,4,4-trifluoro-1-[4-[6-(trifluoromethyl)-3-pyridyl]-1-piperidyl]butan-1-one]
Second: O=C(CCC(F)(F)F)N1CCC(c2ccnc(C(F)(F)F)c2)CC1 [Example 18, 4,4,4-trifluoro-1-(4-(2-(trifluoromethyl)pyridin-4-yl)piperidin-1-yl)butan-1-one]
The EC50 of the first is higher: 1000 to 10000 nM for the first, less than 50 nM for the second.

First: O=C(CCC(F)(F)F)N1CCC(c2cc(C(F)(F)F)ccn2)CC1 [Example 6, 4,4,4-trifluoro-1-[4-[4-(trifluoromethyl)-2-pyridyl]-1-piperidyl]butan-1-one]
Second: O=C(CCC(F)(F)F)N1CCC(c2cccc(C(F)(F)F)n2)CC1 [Example 8, 4,4,4-trifluoro-1-[4-[6-(trifluoromethyl)-2-pyridyl]-1-piperidyl]butan-1-one]
The EC50 of the first is lower: 50 to 250 nM for the first, 1000 to 10000 nM for the second. The first is the more potent here.

Compared with O=C(CCC(F)(F)F)N1CCC(c2cncc(C(F)(F)F)c2)CC1 [Example 7, 4,4,4-trifluoro-1-[4-[5-(trifluoromethyl)-3-pyridyl]-1-piperidyl]butan-1-one], O=C(CCC(F)(F)F)N1CCC(c2cncc(C(F)(F)F)n2)CC1 [Example 24, 4,4,4-trifluoro-1-(4-(6-(trifluoromethyl)pyrazin-2-yl)piperidin-1-yl)butan-1-one] is higher in EC50: 50 to 250 nM for the first, 500 to 1000 nM for the second.

First: O=C(CCC(F)(F)F)N1CCC(c2cccc(F)n2)CC1 [Example 9, 4,4,4-trifluoro-1-[4-(6-fluoro-2-pyridyl)-1-piperidyl]butan-1-one]
Second: O=C(CCC(F)(F)F)N1CCC(c2cccc(Cl)n2)CC1 [Example 27, 1-(4-(6-chloropyridin-2-yl)piperidin-1-yl)-4,4,4-trifluorobutan-1-one]
The EC50 of the first is higher: 250 to 500 nM for the first, 50 to 250 nM for the second.

O=C(CCC(F)(F)F)N1CCC(c2cccnc2C(F)(F)F)CC1 [Example 11, 4,4,4-trifluoro-1-[4-[2-(trifluoromethyl)-3-pyridyl]-1-piperidyl]butan-1-one] and O=C(CCC(F)(F)F)N1CCC(c2nccc(C(F)(F)F)n2)CC1 [Example 15] fall in the same range of EC50: 1000 to 10000 nM for the first, 1000 to 10000 nM for the second.

First: COc1cncc(C2CCN(C(=O)CCC(F)(F)F)CC2)c1 [Example 12, 4,4,4-trifluoro-1-[4-(5-methoxy-3-pyridyl)-1-piperidyl]butan-1-one]
Second: O=C(CCC(F)(F)F)N1CCC(c2cncnc2)CC1 [Example 16]
The EC50 of the first is lower: 500 to 1000 nM for the first, 1000 to 10000 nM for the second.

O=C(CCC(F)(F)F)N1CCC(c2ccc(F)nc2F)CC1 [Example 14, 1-[4-(2,6-difluoro-3-pyridyl)-1-piperidyl]-4,4,4-trifluoro-butan-1-one] and O=C(CCC(F)(F)F)N1CCC(c2cnc(F)c(F)c2)CC1 [Example 23, 1-(4-(5,6-difluoropyridin-3-yl)piperidin-1-yl)-4,4,4-trifluorobutan-1-one] fall in the same range of EC50: 50 to 250 nM for the first, 50 to 250 nM for the second.

Compared with O=C(CCC(F)(F)F)N1CCC(c2ccc(F)cn2)CC1 [Example 17, 4,4,4-trifluoro-1-[4-(5-fluoro-2-pyridyl)-1-piperidyl]butan-1-one], O=C(CCC(F)(F)F)N1CCC(c2ccnc(F)c2)CC1 [Example 20, 4,4,4-trifluoro-1-(4-(2-fluoropyridin-4-yl)piperidin-1-yl)butan-1-one] is lower in EC50: 1000 to 10000 nM for the first, 50 to 250 nM for the second. The second is the more potent here.

O=C(CCC(F)(F)F)N1CCC(c2cnc(C(F)(F)F)cn2)CC1 [Example 21, 4,4,4-trifluoro-1-(4-(5-(trifluoromethyl)pyrazin-2-yl)piperidin-1-yl)butan-1-one] and O=C(CCC(F)(F)F)N1CCC(c2ncccn2)CC1 [Example 28, 4,4,4-trifluoro-1-[4-(pyrimidin-2-yl)piperidin-1-yl]butan-1-one] fall in the same range of EC50: 1000 to 10000 nM for the first, 1000 to 10000 nM for the second.

Cc1cc(C2CCN(C(=O)CCC(F)(F)F)CC2)ccn1 [Example 22, 4,4,4-trifluoro-1-(4-(2-methylpyridin-4-yl)piperidin-1-yl)butan-1-one] and O=C(CCC(F)(F)F)N1CCC(c2ccnc(Cl)c2)CC1 [Example 25, 1-(4-(2-chloropyridin-4-yl)piperidin-1-yl)-4,4,4-trifluorobutan-1-one] fall in the same range of EC50: 50 to 250 nM for the first, 50 to 250 nM for the second.

Compared with O=C(CCC(F)(F)F)N1CCC(c2ccncc2F)CC1 [Example 26, 4,4,4-trifluoro-1-(4-(3-fluoropyridin-4-yl)piperidin-1-yl)butan-1-one], O=C(CCCC(F)(F)F)N1CCC(c2cncc(Cl)c2)CC1 [Example 31, 1-(4-(5-chloropyridin-3-yl)piperidin-1-yl)-5,5,5-trifluoropentan-1-one] is lower in EC50: 500 to 1000 nM for the first, 250 to 500 nM for the second. The second is the more potent here.

O=C(CCC(F)(F)F)N1CCC(F)(c2ccccn2)CC1 [Example 33, 4,4,4-trifluoro-1-(4-fluoro-4-(pyridin-2-yl)piperidin-1-yl)butan-1-one] and O=C(CCC(F)(F)F)N1CCC(F)(c2cc(C(F)(F)F)ccn2)CC1 [Example 39, 4,4,4-trifluoro-1-[4-fluoro-4-[4-(trifluoromethyl)-2-pyridyl]-1-piperidyl]butan-1-one] fall in the same range of EC50: 50 to 250 nM for the first, 50 to 250 nM for the second.

O=C(CCC(F)(F)F)N1CCC(F)(c2cncc(C(F)(F)F)c2)CC1 [Example 34, 4,4,4-trifluoro-1-(4-fluoro-4-(5-(trifluoromethyl)pyridin-3-yl)piperidin-1-yl)butan-1-one] and O=C(CCC(F)(F)F)N1CCC(F)(c2ccnc(C(F)(F)F)c2)CC1 [Example 35, 4,4,4-trifluoro-1-(4-fluoro-4-(2-(trifluoromethyl)pyridin-4-yl)piperidin-1-yl)butan-1-one] cannot be ordered by EC50: less than 50 nM for the first, less than 50 nM for the second.

Compared with O=C(CCC(F)(F)F)N1CCC(F)(c2cncc(Cl)n2)CC1 [Example 36, 1-(4-(6-chloropyrazin-2-yl)-4-fluoropiperidin-1-yl)-4,4,4-trifluorobutan-1-one], O=C(CCC(F)(F)F)N1CCC(F)(c2ccnc(Cl)c2)CC1 [Example 41] is lower in EC50: 250 to 500 nM for the first, less than 50 nM for the second.

First: O=C(CCC(F)(F)F)N1CCC(F)(c2ccnc(F)c2)CC1 [Example 37, 4,4,4-trifluoro-1-(4-fluoro-4-(2-fluoropyridin-4-yl)piperidin-1-yl)butan-1-one]
Second: O=C(CCC(F)(F)F)N1CCC(F)(c2ccc(F)nc2)CC1 [Example 40]
The EC50 of the first is lower: less than 50 nM for the first, 50 to 250 nM for the second.

Compound O=C(CCC(F)(F)F)N1CCC(c2cncc(Cl)c2)C1 (stereo not drawn) [Example 38, 1-(3-(5-chloropyridin-3-yl)pyrrolidin-1-yl)-4,4,4-trifluorobutan-1-one] has an EC50 of less than 50 nM.
